# Measured values from the supplement of paper PMC10307832.
# Assays:
# Assay in all cases: relative viability (nuclei count vs DMSO), 5 days (fraction); higher = more cells survive
# PC-14 = tested on: PC-14
# In short: (§1)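 Lung cancer cell lines in 1536-well plates got either a single drug or a fixed anchor-drug dose together with five library-drug doses (not always all listed) in √10 steps, by pin tool, on the day after seeding. Nuclei were counted after 5 days, and relative viability is the treated-to-vehicle ratio of nuclei counts. Values are medians of duplicate plates.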
# NCI-H1993 = tested on: NCI-H1993
# In short: as §1
# NCI-H647 = tested on: NCI-H647
# In short: as §1
# LOU-NH91 = tested on: LOU-NH91
# In short: as §1
# COR-L23 = tested on: COR-L23
# In short: as §1
# NCI-H1793 = tested on: NCI-H1793
# In short: as §1
# NCI-H2085 = tested on: NCI-H2085
# In short: as §1
# NCI-H441 = tested on: NCI-H441
# In short: as §1
# NCI-H520 = tested on: NCI-H520
# In short: as §1
# HCC-44 = tested on: HCC-44
# In short: as §1
# ABC-1 = tested on: ABC-1
# In short: as §1
# NCI-H2347 = tested on: NCI-H2347
# In short: as §1
# RERF-LC-KJ = tested on: RERF-LC-KJ
# In short: as §1
# NCI-H2405 = tested on: NCI-H2405
# In short: as §1
# NCI-H1563 = tested on: NCI-H1563
# In short: as §1
# NCI-H2170 = tested on: NCI-H2170
# In short: as §1
# EKVX = tested on: EKVX
# In short: as §1
# NCI-H3122 = tested on: NCI-H3122
# In short: as §1
# NCI-H1734 = tested on: NCI-H1734
# In short: as §1
# 201T = tested on: 201T
# In short: as §1
# NCI-H2023 = tested on: NCI-H2023
# In short: as §1
# EPLC-272H = tested on: EPLC-272H
# In short: as §1
smiles,measurement,setting,value
Clc1ccc(Nc2nnc(Cc3ccncc3)c3ccccc23)cc1 [Vatalanib] + Cc1nc(NC(=O)N2CCC[C@H]2C(N)=O)sc1-c1ccnc(C(C)(C)C(F)(F)F)c1 [Alpelisib] (partner 2 µM),relative viability,PC-14; first compound 0.04 µM,0.993
same,relative viability,PC-14; first compound 0.1265 µM,0.9
same,relative viability,PC-14; first compound 0.4 µM,0.97
same,relative viability,PC-14; first compound 1.265 µM,0.904
same,relative viability,PC-14; first compound 4 µM,0.866
same,relative viability,NCI-H1993; first compound 0.04 µM,0.581
same,relative viability,NCI-H1993; first compound 0.1265 µM,0.68
same,relative viability,NCI-H1993; first compound 0.4 µM,0.678
same,relative viability,NCI-H1993; first compound 1.265 µM,0.634
same,relative viability,NCI-H1993; first compound 4 µM,0.707
same,relative viability,NCI-H647; first compound 0.04 µM,1.11
same,relative viability,NCI-H647; first compound 0.1265 µM,1.05
same,relative viability,NCI-H647; first compound 0.4 µM,1.19
same,relative viability,NCI-H647; first compound 1.265 µM,1.1
same,relative viability,NCI-H647; first compound 4 µM,1.05
same,relative viability,LOU-NH91; first compound 0.04 µM,0.75
same,relative viability,LOU-NH91; first compound 0.1265 µM,0.702
same,relative viability,LOU-NH91; first compound 0.4 µM,0.595
same,relative viability,LOU-NH91; first compound 1.265 µM,0.704
same,relative viability,LOU-NH91; first compound 4 µM,0.732
same,relative viability,COR-L23; first compound 0.04 µM,0.769
same,relative viability,COR-L23; first compound 0.1265 µM,0.75
same,relative viability,COR-L23; first compound 0.4 µM,1.07
same,relative viability,COR-L23; first compound 1.265 µM,0.665
same,relative viability,COR-L23; first compound 4 µM,0.739
same,relative viability,NCI-H1793; first compound 0.04 µM,0.554
same,relative viability,NCI-H1793; first compound 0.1265 µM,0.659
same,relative viability,NCI-H1793; first compound 0.4 µM,0.569
same,relative viability,NCI-H1793; first compound 1.265 µM,0.635
same,relative viability,NCI-H1793; first compound 4 µM,0.647
same,relative viability,NCI-H2085; first compound 0.04 µM,0.923
same,relative viability,NCI-H2085; first compound 0.1265 µM,0.94
same,relative viability,NCI-H2085; first compound 0.4 µM,1.04
same,relative viability,NCI-H2085; first compound 1.265 µM,0.97
same,relative viability,NCI-H2085; first compound 4 µM,0.893
same,relative viability,NCI-H441; first compound 0.04 µM,0.808
same,relative viability,NCI-H441; first compound 0.1265 µM,0.627
same,relative viability,NCI-H441; first compound 0.4 µM,0.733
same,relative viability,NCI-H441; first compound 1.265 µM,0.836
same,relative viability,NCI-H441; first compound 4 µM,0.859
same,relative viability,NCI-H520; first compound 0.04 µM,0.848
same,relative viability,NCI-H520; first compound 0.1265 µM,0.895
same,relative viability,NCI-H520; first compound 0.4 µM,0.912
same,relative viability,NCI-H520; first compound 1.265 µM,0.855
same,relative viability,NCI-H520; first compound 4 µM,0.852
same,relative viability,HCC-44; first compound 0.04 µM,0.803
same,relative viability,HCC-44; first compound 0.1265 µM,0.815
same,relative viability,HCC-44; first compound 0.4 µM,0.777
same,relative viability,HCC-44; first compound 1.265 µM,0.81
same,relative viability,HCC-44; first compound 4 µM,0.745
same,relative viability,ABC-1; first compound 0.04 µM,1
same,relative viability,ABC-1; first compound 0.1265 µM,0.936
same,relative viability,ABC-1; first compound 0.4 µM,1.2
same,relative viability,ABC-1; first compound 1.265 µM,0.853
same,relative viability,ABC-1; first compound 4 µM,0.926
same,relative viability,NCI-H2347; first compound 0.04 µM,1.05
same,relative viability,NCI-H2347; first compound 0.1265 µM,1.13
same,relative viability,NCI-H2347; first compound 0.4 µM,1.03
same,relative viability,NCI-H2347; first compound 1.265 µM,0.963
same,relative viability,NCI-H2347; first compound 4 µM,1.03
same,relative viability,RERF-LC-KJ; first compound 0.04 µM,0.824
same,relative viability,RERF-LC-KJ; first compound 0.1265 µM,0.859
same,relative viability,RERF-LC-KJ; first compound 0.4 µM,0.77
same,relative viability,RERF-LC-KJ; first compound 1.265 µM,0.74
same,relative viability,RERF-LC-KJ; first compound 4 µM,0.765
same,relative viability,NCI-H2405; first compound 0.04 µM,0.959
same,relative viability,NCI-H2405; first compound 0.1265 µM,0.769
same,relative viability,NCI-H2405; first compound 1.265 µM,0.795
same,relative viability,NCI-H2405; first compound 4 µM,0.773
same,relative viability,NCI-H1563; first compound 0.04 µM,0.937
same,relative viability,NCI-H1563; first compound 0.1265 µM,0.862
same,relative viability,NCI-H1563; first compound 0.4 µM,1.03
same,relative viability,NCI-H1563; first compound 1.265 µM,0.863
same,relative viability,NCI-H1563; first compound 4 µM,0.979
same,relative viability,NCI-H2170; first compound 0.04 µM,0.86
same,relative viability,NCI-H2170; first compound 0.1265 µM,0.777
same,relative viability,NCI-H2170; first compound 0.4 µM,0.861
same,relative viability,NCI-H2170; first compound 1.265 µM,0.81
same,relative viability,NCI-H2170; first compound 4 µM,0.811
same,relative viability,EKVX; first compound 0.04 µM,0.939
same,relative viability,EKVX; first compound 0.1265 µM,0.821
same,relative viability,EKVX; first compound 0.4 µM,0.824
same,relative viability,EKVX; first compound 1.265 µM,0.829
same,relative viability,EKVX; first compound 4 µM,0.785
same,relative viability,NCI-H3122; first compound 0.04 µM,0.779
same,relative viability,NCI-H3122; first compound 0.1265 µM,0.742
same,relative viability,NCI-H3122; first compound 0.4 µM,0.799
same,relative viability,NCI-H3122; first compound 1.265 µM,0.93
same,relative viability,NCI-H3122; first compound 4 µM,0.906
same,relative viability,NCI-H1734; first compound 0.04 µM,0.747
same,relative viability,NCI-H1734; first compound 0.1265 µM,0.684
same,relative viability,NCI-H1734; first compound 0.4 µM,0.743
same,relative viability,NCI-H1734; first compound 1.265 µM,0.685
same,relative viability,NCI-H1734; first compound 4 µM,0.689
same,relative viability,201T; first compound 0.04 µM,0.984
same,relative viability,201T; first compound 0.1265 µM,1.03
same,relative viability,201T; first compound 0.4 µM,1.04
same,relative viability,201T; first compound 1.265 µM,1.03
same,relative viability,201T; first compound 4 µM,1.07
same,relative viability,NCI-H2023; first compound 0.04 µM,0.611
same,relative viability,NCI-H2023; first compound 0.1265 µM,0.537
same,relative viability,NCI-H2023; first compound 0.4 µM,0.657
same,relative viability,NCI-H2023; first compound 1.265 µM,0.492
same,relative viability,NCI-H2023; first compound 4 µM,0.561
same,relative viability,EPLC-272H; first compound 0.04 µM,0.824
same,relative viability,EPLC-272H; first compound 0.1265 µM,0.963
same,relative viability,EPLC-272H; first compound 0.4 µM,1.08
same,relative viability,EPLC-272H; first compound 1.265 µM,1.05
same,relative viability,EPLC-272H; first compound 4 µM,1.06
